The values that follow come from PubChem BioAssay AID330 (DTP/NCI, 2004).

Several values for one entry are separate records, joined by “and”; a condition that tells them apart may be missing. Identical values can stand only once. Toxic doses and inconclusive results are not listed.

This experiment has as its system P388 leukemia ip, CD2F1 mice, survival T/C. Description: NCI In Vivo Anticancer Drug Screen. Data for tumor model P388 Leukemia (intraperitoneal) in CD2F1 (CDF1) mice. The following applies: endpoint: median survival time, higher = longer survival. In short, it runs like this: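 Mice carrying the transplanted tumor received test compound or vehicle. Survival was recorded in each group, and the value is the treated-group measurement divided by that of the vehicle-treated control group.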

[1] abbreviates: dose: 50.0 mg/kg/injection, schedule: Q01DX005 (ip), vehicle: saline.
Where [2] appears, read: dose: 100.0 mg/kg/injection, schedule: Q01DX005 (ip), vehicle: saline.
Setting [3] is: dose: 25.0 mg/kg/injection, schedule: Q01DX009 (ip), vehicle: saline with Tween-80.
[4] abbreviates: dose: 50.0 mg/kg/injection, schedule: Q01DX009 (ip), vehicle: saline with Tween-80.
Setting [5] is: dose: 200.0 mg/kg/injection, schedule: Q01DX009 (ip), vehicle: saline with Tween-80.
The mark [6] stands for this setting: dose: 50.0 mg/kg/injection, schedule: Q01DX005 (ip), vehicle: saline with Tween-80.
[7] abbreviates: dose: 100.0 mg/kg/injection, schedule: Q01DX005 (ip), vehicle: saline with Tween-80.
[8] abbreviates: dose: 100.0 mg/kg/injection, schedule: Q01DX009 (ip), vehicle: saline with Tween-80.
Where [9] appears, read: dose: 400.0 mg/kg/injection, schedule: Q01DX009 (ip), vehicle: saline with Tween-80.
[10] abbreviates: dose: 200.0 mg/kg/injection, schedule: Q01DX005 (ip), vehicle: saline with Tween-80.
The mark [11] stands for this setting: dose: 60.0 mg/kg/injection, schedule: Q01DX005 (ip), vehicle: saline with Tween-80.
Setting [12] is: dose: 120.0 mg/kg/injection, schedule: Q01DX005 (ip), vehicle: saline with Tween-80.
Where [13] appears, read: dose: 240.0 mg/kg/injection, schedule: Q01DX005 (ip), vehicle: saline with Tween-80.
Setting [14] is: dose: 60.0 mg/kg/injection, schedule: Q01DX005 (ip), vehicle: Klucel (hydroxypropylcellulose) (HPC).
Where [15] appears, read: dose: 120.0 mg/kg/injection, schedule: Q01DX005 (ip), vehicle: Klucel (hydroxypropylcellulose) (HPC).
Where [16] appears, read: dose: 240.0 mg/kg/injection, schedule: Q01DX005 (ip), vehicle: Klucel (hydroxypropylcellulose) (HPC).

On to `CC1CN(Cc2ccccc2)CCC1N1CCCCC1` (configuration not stated), for which the T/C is, setting by setting: under setting [1], 99 % of control; under setting [2], 100 % of control.

With `S=C1Nc2ccccc2C2CC=NN12` (configuration not stated), the T/C reads like this: (dose: 12.5 mg/kg/injection, schedule: Q01DX009 (ip), vehicle: saline with Tween-80) 91 % of control; under setting [3], 112 % of control; under setting [4], 88 % of control and 96 % of control; under setting [5], 86 % of control.

As to `CN(C)/N=N/c1nc[nH]c1C(N)=O`, the T/C was 95 % of control (dose: 12.5 mg/kg/injection, schedule: Q01DX005 (ip), vehicle: Klucel (hydroxypropylcellulose) (HPC)); 105 % of control (dose: 25.0 mg/kg/injection, schedule: Q01DX005 (ip), vehicle: Klucel (hydroxypropylcellulose) (HPC)); 123 % of control under setting [3]; 105 % of control (dose: 50.0 mg/kg/injection, schedule: Q01DX005 (ip), vehicle: Klucel (hydroxypropylcellulose) (HPC)); 106 % of control under setting [6]; 120 % of control under setting [4]. Further, the T/C is 115 % of control (dose: 100.0 mg/kg/injection, schedule: Q01DX005 (ip), vehicle: Klucel (hydroxypropylcellulose) (HPC)); 119 % of control under setting [7]; 120 % of control under setting [8]; 166 % of control (dose: 150.0 mg/kg/injection, schedule: Q01DX005 (ip), vehicle: distilled water + Tween-80); 122 % of control (dose: 200.0 mg/kg/injection, schedule: Q01DX005 (ip), vehicle: Klucel (hydroxypropylcellulose) (HPC)); 103 % of control under setting [5]. In addition, the T/C (dose: 300.0 mg/kg/injection, schedule: Q01DX005 (ip), vehicle: distilled water + Tween-80) is 156 % of control; the T/C (dose: 400.0 mg/kg/injection, schedule: Q01DX005 (ip), vehicle: saline with Tween-80) is 121 % of control; the T/C under setting [9] is 86 % of control.

As for `CCOC(=O)C(C(=O)OCC)C1CCS(=O)(=O)C1` (configuration not stated), the T/C runs as follows: under setting [8], 109 % of control; under setting [5], 104 % of control; under setting [9], 104 % of control.

In the case of `O=C1CC2(CCc3ccccc32)C(=O)N1CN1CCN(c2ccccn2)CC1` (configuration not stated), the T/C by setting is: under setting [6], 106 % of control; under setting [7], 109 % of control; under setting [10], 92 % of control.

As to `COC(=O)N1c2ccccc2C=C(NC(C)=O)C1C#N` (configuration not stated), the T/C was 90 % of control (dose: 100.0 mg/kg/injection, schedule: Q04DX003 (ip), vehicle: saline with Tween-80); 100 % of control (dose: 200.0 mg/kg/injection, schedule: Q04DX003 (ip), vehicle: saline with Tween-80); 100 % of control (dose: 400.0 mg/kg/injection, schedule: Q04DX003 (ip), vehicle: saline with Tween-80).

Take `COc1cc(C(c2cc3c(cc2O)OCO3)N2CCN(C(c3ccc(O)c(OC)c3)c3cc4c(cc3O)OCO4)CC2)ccc1O` (configuration not stated): the T/C was 89 % of control under setting [11], 92 % of control under setting [12] and 95 % of control under setting [13].

Take `Cc1c(-c2cnccn2)ssc1=S`: the T/C is 103 % of control under setting [6], 99 % of control under setting [7] and 103 % of control under setting [10].

With `O=c1[nH]c2c([N+](=O)[O-])cccc2nc1/C=C(\O)c1cccc([N+](=O)[O-])c1`, the T/C by setting is: (dose: 7.5 mg/kg/injection, schedule: Q01DX005 (ip), vehicle: Klucel + Tween-80) 94 % of control; (dose: 15.0 mg/kg/injection, schedule: Q01DX005 (ip), vehicle: Klucel + Tween-80) 94 % of control; (dose: 30.0 mg/kg/injection, schedule: Q01DX005 (ip), vehicle: Klucel + Tween-80) 88 % of control.

On to `Cc1cc(O)c(O)c(Oc2cc(C)cc(O)c2O)c1`, for which the T/C reads like this: (dose: 75.0 micrograms/kg/injection, schedule: Q01DX009 (ip), vehicle: saline) 100 % of control; (dose: 150.0 micrograms/kg/injection, schedule: Q01DX009 (ip), vehicle: saline) 109 % of control; (dose: 300.0 micrograms/kg/injection, schedule: Q01DX009 (ip), vehicle: saline) 102 % of control.

`CCCCC(C(=O)OCC)/C(C)=N\NC(N)=S` (configuration not stated): the T/C under setting [14] is 100 % of control, the T/C under setting [15] is 99 % of control and the T/C under setting [16] is 98 % of control.

For the compound `C=C1C(=O)C23OC2C1CCC(=O)C1(C)CC[C@H](OC(C)=O)C(C)(C)[C@H]1CC3=O` (some centres not stated), the T/C (dose: 2.5 mg/kg/injection, schedule: Q01DX005 (ip), vehicle: Klucel (hydroxypropylcellulose) (HPC)) was 111 % of control; the T/C (dose: 5.0 mg/kg/injection, schedule: Q01DX005 (ip), vehicle: Klucel (hydroxypropylcellulose) (HPC)) was 107 % of control; the T/C (dose: 10.0 mg/kg/injection, schedule: Q01DX005 (ip), vehicle: Klucel (hydroxypropylcellulose) (HPC)) was 107 % of control.

Consider `CC1Oc2cc3c(-c4c(O)cc(O)c5c(O)c6c(cc45)OC(C)C(C)C6=O)c(O)cc(O)c3c(O)c2C(=O)C1C` (configuration not stated), for which the T/C (dose: 1.25 mg/kg/injection, schedule: Q01DX005 (ip), vehicle: saline) is 101 % of control; the T/C (dose: 1.25 mg/kg/injection, schedule: Q01DX005 (ip), vehicle: suspension in saline) is 100 % of control; the T/C (dose: 2.5 mg/kg/injection, schedule: Q01DX005 (ip), vehicle: saline) was 100 % of control; the T/C (dose: 2.5 mg/kg/injection, schedule: Q01DX005 (ip), vehicle: suspension in saline) is 95 % of control; the T/C (dose: 5.0 mg/kg/injection, schedule: Q01DX005 (ip), vehicle: suspension in saline) is 121 % of control; the T/C (dose: 10.0 mg/kg/injection, schedule: Q01DX005 (ip), vehicle: suspension in saline) was 116 % of control. Moreover, where the note is “dose: 20.0 mg/kg/injection, schedule: Q01DX005 (ip), vehicle: suspension in saline”, the T/C is 110 % of control.

Regarding `C[N+](C)(C)CCC[N+]1(C)CC2CCCCC2C1` (configuration not stated), the T/C under setting [1] was 107 % of control; the T/C under setting [2] was 98 % of control; the T/C (dose: 200.0 mg/kg/injection, schedule: Q01DX005 (ip), vehicle: saline) is 101 % of control.

As to `CC(=O)c1ccc2ccccc2n1`, the T/C (dose: 25.0 mg/kg/injection, schedule: Q01DX009 (ip), vehicle: other) is 102 % of control; the T/C (dose: 50.0 mg/kg/injection, schedule: Q01DX009 (ip), vehicle: other) is 105 % of control; the T/C (dose: 100.0 mg/kg/injection, schedule: Q01DX009 (ip), vehicle: other) is 111 % of control; the T/C (dose: 200.0 mg/kg/injection, schedule: Q01DX009 (ip), vehicle: other) is 114 % of control; the T/C (dose: 400.0 mg/kg/injection, schedule: Q01DX009 (ip), vehicle: other) is 114 % of control.

In the case of `COc1ccc2nc(C)cc(N=[N+]=[N-])c2c1`, the T/C under setting [11] is 100 % of control, the T/C under setting [12] is 100 % of control and the T/C under setting [13] was 91 % of control.

Turning to `N#Cc1ccc(OC(=O)Nc2ccc(Cl)c(Cl)c2)cc1`, the T/C under setting [14] is 118 % of control, the T/C under setting [15] was 107 % of control and the T/C under setting [16] was 115 % of control.

For the compound `COC(=O)CCC(=O)N(C)CCc1c[nH]c2ccccc12`, the T/C reads like this: under setting [8], 90 % of control; under setting [5], 90 % of control; under setting [9], 90 % of control.

With `O[C@]12C=C[C@H](CCCC1)O2`, the T/C by setting is: under setting [6], 107 % of control; under setting [7], 108 % of control; under setting [10], 111 % of control.

For `OC(Cc1ccccc1)c1ccccc1` (configuration not stated), the T/C (dose: 31.25 mg/kg/injection, schedule: Q01DX009 (ip), vehicle: saline + Tween-80 + alcohol) is 107 % of control; the T/C (dose: 62.5 mg/kg/injection, schedule: Q01DX009 (ip), vehicle: saline + Tween-80 + alcohol) is 100 % of control; the T/C (dose: 100.0 mg/kg/injection, schedule: Q01DX009 (ip), vehicle: suspension in saline) is 104 % of control; the T/C (dose: 125.0 mg/kg/injection, schedule: Q01DX009 (ip), vehicle: saline + Tween-80 + alcohol) was 98 % of control; the T/C (dose: 200.0 mg/kg/injection, schedule: Q01DX009 (ip), vehicle: suspension in saline) is 98 % of control; the T/C (dose: 250.0 mg/kg/injection, schedule: Q01DX009 (ip), vehicle: saline + Tween-80 + alcohol) was 102 % of control. The T/C (dose: 400.0 mg/kg/injection, schedule: Q01DX009 (ip), vehicle: suspension in saline) was 98 % of control.
